Test [1] concerns the target hGYS1 enzyme (recombinant hGYS1/GN1 protein) (Homo sapiens (Human), UniProt P13807). Nature of the test: GYS1 coupled enzyme assay (PK/LDH). Format: biochemical. As to conditions: hGYS1/GN1 50 nM, UDP-Glucose 0.8 mM, G6P 1 mM; geometric mean of at least 2 runs.
Test [2] relates to hGYS1 enzyme / glycogen synthesis in HeLa cells. Nature of the test: GYS1 cell based assay (glycogen synthesis, Glucose-glo). Further details: species or system human. As to conditions: 24 h incubation, 20 mM glucose, geometric mean of at least 2 runs. The gist of the method: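 HeLa cells starved 24 h in medium containing only 1× Glutamax were plated onto compound in medium with 20 mM glucose (1% DMSO final) for 24 h, 37 °C, 5% CO2. Acid lysates were Tris-quenched, glucoamylase-digested (pH 5.3, 1 h, 37 °C) and read by Glucose-glo luminescence. IC50 came from Hill fits, as geometric mean of ≥2 runs.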

Test [3] concerns the target hGYS2 enzyme (recombinant hGYS2/GN1 protein) (Homo sapiens (Human), UniProt P54840). The test is described as follows: GYS2 coupled enzyme assay (PK/LDH). As to conditions: geometric mean of at least 2 assay runs on separate days, read-out: Avg_IC50. In kind it is biochemical. Summed up:
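hGYS2/GN1 200 nM; UDP-Glc 2 mM; glycogen 0.2%; G6P 2 mM; PEP 2 mM, NADH 0.6 mM, PK/LDH 20 U/mL. 50 mM Tris pH 7.5, MgCl2, KCl, BSA, TCEP, 2.5% DMSO. Kinetic A340, 10 min. IC50 = geomean of ≥2 runs.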

hGYS2 enzyme (recombinant hGYS2/GN1 protein), sequence (P54840 whole entry): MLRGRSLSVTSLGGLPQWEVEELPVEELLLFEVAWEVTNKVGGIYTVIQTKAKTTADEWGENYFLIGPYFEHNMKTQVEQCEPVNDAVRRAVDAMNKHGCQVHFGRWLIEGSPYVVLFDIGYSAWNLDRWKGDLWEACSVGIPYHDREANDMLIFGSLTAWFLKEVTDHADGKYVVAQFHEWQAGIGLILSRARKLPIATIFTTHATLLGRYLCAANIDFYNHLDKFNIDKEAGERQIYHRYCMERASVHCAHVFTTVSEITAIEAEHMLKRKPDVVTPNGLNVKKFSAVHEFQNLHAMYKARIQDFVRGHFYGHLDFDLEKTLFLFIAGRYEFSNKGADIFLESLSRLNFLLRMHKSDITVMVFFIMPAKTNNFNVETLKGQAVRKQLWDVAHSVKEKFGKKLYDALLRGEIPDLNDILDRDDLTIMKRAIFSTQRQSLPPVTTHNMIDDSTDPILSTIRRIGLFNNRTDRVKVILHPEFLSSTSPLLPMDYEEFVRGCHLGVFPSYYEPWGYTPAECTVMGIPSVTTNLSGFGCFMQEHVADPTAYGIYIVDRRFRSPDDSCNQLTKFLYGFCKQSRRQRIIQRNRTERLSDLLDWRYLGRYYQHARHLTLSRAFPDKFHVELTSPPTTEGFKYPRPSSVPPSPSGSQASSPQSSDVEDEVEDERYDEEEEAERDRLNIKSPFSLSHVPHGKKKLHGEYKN
hGYS2 enzyme (recombinant hGYS2/GN1 protein), sequence (P46976 whole entry partner): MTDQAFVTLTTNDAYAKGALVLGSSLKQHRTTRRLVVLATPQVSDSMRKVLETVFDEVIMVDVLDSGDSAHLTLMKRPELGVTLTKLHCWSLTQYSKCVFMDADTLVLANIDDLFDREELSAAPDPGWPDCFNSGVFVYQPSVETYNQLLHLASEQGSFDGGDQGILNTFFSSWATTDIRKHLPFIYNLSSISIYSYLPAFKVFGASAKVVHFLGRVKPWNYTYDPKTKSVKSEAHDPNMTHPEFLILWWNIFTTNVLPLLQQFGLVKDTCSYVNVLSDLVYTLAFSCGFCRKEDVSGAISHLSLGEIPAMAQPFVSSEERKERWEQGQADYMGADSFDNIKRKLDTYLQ
hGYS1 enzyme (recombinant hGYS1/GN1 protein), sequence (P13807 whole entry): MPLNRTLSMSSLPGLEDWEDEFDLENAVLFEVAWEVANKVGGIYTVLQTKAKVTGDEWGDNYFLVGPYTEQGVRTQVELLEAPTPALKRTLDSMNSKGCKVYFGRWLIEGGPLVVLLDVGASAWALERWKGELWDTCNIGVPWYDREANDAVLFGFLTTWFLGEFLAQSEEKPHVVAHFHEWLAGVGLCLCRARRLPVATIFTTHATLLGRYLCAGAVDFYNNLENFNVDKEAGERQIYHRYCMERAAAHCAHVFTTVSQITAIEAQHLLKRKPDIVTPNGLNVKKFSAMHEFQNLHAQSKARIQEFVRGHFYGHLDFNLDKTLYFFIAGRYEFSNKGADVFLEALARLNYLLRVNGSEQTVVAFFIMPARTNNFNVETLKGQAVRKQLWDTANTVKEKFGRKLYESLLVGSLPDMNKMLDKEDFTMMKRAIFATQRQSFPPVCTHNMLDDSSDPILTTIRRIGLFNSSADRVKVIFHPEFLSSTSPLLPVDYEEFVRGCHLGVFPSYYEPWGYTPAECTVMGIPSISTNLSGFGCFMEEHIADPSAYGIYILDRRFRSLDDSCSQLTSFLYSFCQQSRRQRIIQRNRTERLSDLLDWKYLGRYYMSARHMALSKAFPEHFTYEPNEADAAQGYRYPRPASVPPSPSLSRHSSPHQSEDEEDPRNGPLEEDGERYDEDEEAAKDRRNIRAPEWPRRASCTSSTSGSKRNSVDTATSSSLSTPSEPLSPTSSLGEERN
hGYS1 enzyme (recombinant hGYS1/GN1 protein), sequence (P46976 whole entry partner): as the sequence (P46976 whole entry partner) above

In the case of `CCC(C)c1ccc(C(NC(=O)[C@@H]2C[C@@H](F)CN2C(=O)Cc2cnn[nH]2)c2ccccc2)cc1F` (single isomer, unassigned) [Compound 677, (2S,4R)-N-[(S) or (R)-{4-[(2R) or (2S)-butan-2-yl]-3-fluorophenyl} (phenyl)methyl]-4-fluoro-1-[2-(1H-1,2,3-triazol-5-yl)acetyl]pyrrolidine-2-carboxamide], the figures for the IC50 in test [1], in test [2] and in test [3] were 51 nM, 990 nM and > 100000 nM, respectively.
On to `Cc1cc(C(NC(=O)[C@@H]2C[C@@H](F)CN2C(=O)Cc2cnn[nH]2)c2ccccc2)cc(F)c1C(C)C` (single isomer, unassigned) [Compound 680, (2S,4R)-4-fluoro-N-[(S) or (R)-[3-fluoro-5-methyl-4-(propan-2-yl)phenyl](phenyl)methyl]-1-[2-(1H-1,2,3-triazol-5-yl)acetyl]pyrrolidine-2-carboxamide], for which the IC50 in test [1] is 15 nM; in test [2], 270 nM; in test [3], 93000 nM.
Consider `Cc1nnn(CC(=O)N2C[C@H](F)C[C@H]2C(=O)NC(c2ccccc2)c2cc(C)c(C3CC3)c(F)c2)n1` (single isomer, unassigned) [Compound 682, (2S,4R)-N-[(S) or (R)-(4-cyclopropyl-3-fluoro-5-methylphenyl) (phenyl)methyl]-4-fluoro-1-[2-(5-methyl-2H-1,2,3,4-tetrazol-2-yl)acetyl]pyrrolidine-2-carboxamide], for which the IC50 in test [1] was 116 nM; in test [2] (Homo sapiens, HeLa, 24 h) it was 2090 nM; in test [3], > 100000 nM.
`CC(=O)N1C[C@H](F)C[C@H]1C(=O)NC(c1cccc(-c2ccn[nH]2)c1)c1ccc(C(C)C)c(F)n1` (single isomer, unassigned) [Compound 690, (2S,4R)-1-acetyl-4-fluoro-N-[(S) or (R)-[6-fluoro-5-(propan-2-yl)pyridin-2-yl][3-(1H-pyrazol-5-yl)phenyl]methyl] pyrrolidine-2-carboxamide]: the IC50 in test [1] was 47 nM; in test [2] (Homo sapiens, HeLa, 24 h), 900 nM; in test [3], > 100000 nM.
As to `CC(C)c1ccc([C@@H](NC(=O)[C@@H]2C[C@@H](F)CN2C(=O)C(C)n2cnnn2)c2ccccc2)cc1F` (single isomer, unassigned) [Compound 766, (2S,4R)-4-fluoro-N-[(S)-[3-fluoro-4-(propan-2-yl)phenyl](phenyl)methyl]-1-[(2R) or (2S)-2-(1H-1,2,3,4-tetrazol-1-yl)propanoyl]pyrrolidine-2-carboxamide], the IC50 in test [1] is 38 nM; in test [2] (Homo sapiens, HeLa, 24 h) it was 350 nM; in test [3], > 100000 nM.
In the case of `CC(C)c1ccc([C@@H](NC(=O)[C@@H]2C[C@@H](F)CN2C(=O)C(C)n2ccnc2)c2ccccc2)cc1F` (single isomer, unassigned) [Compound 768, (2S,4R)-4-fluoro-N-[(S)-[3-fluoro-4-(propan-2-yl)phenyl](phenyl)methyl]-1-[(2R) or (2S)-2-(1H-imidazol-1-yl)propanoyl]pyrrolidine-2-carboxamide], the IC50 was 121 nM in test [1], 1230 nM in test [2] and > 100000 nM in test [3].
For the compound `CC(C)c1ccc([C@@H](NC(=O)[C@@H]2C[C@@H](F)CN2C(=O)C(C)c2cnn[nH]2)c2ccccc2)cc1F` (single isomer, unassigned) [Compound 769, (2S,4R)-4-fluoro-N-[(S)-[3-fluoro-4-(propan-2-yl)phenyl](phenyl)methyl]-1-[(2R) or (2S)-2-(1H-1,2,3-triazol-5-yl)propanoyl]pyrrolidine-2-carboxamide], the IC50 in test [1] is 22 nM; in test [2] (Homo sapiens, HeLa, 24 h), 290 nM; in test [3] it was > 100000 nM.
In the case of `CC(C)c1ccc([C@@H](NC(=O)[C@@H]2C[C@@H](F)CN2C(=O)C(C)n2ccnc2)c2ccccc2)cc1F` (single isomer, unassigned) [Compound 771, (2S,4R)-4-fluoro-N-[(S)-[3-fluoro-4-(propan-2-yl)phenyl](phenyl)methyl]-1-[(2S) or (2R)-2-(1H-imidazol-1-yl)propanoyl]pyrrolidine-2-carboxamide], the IC50 in test [1] is 33 nM; in test [2], 540 nM; in test [3], > 100000 nM.
Taken in the same sequence, the figures for `CC(C)c1ccc([C@@H](NC(=O)[C@@H]2C[C@@H](F)CN2C(=O)C(O)c2cnn[nH]2)c2ccccc2)cc1F` (single isomer, unassigned) [Compound 773, (2S,4R)-4-fluoro-N -[(S)-[3-fluoro-4-(propan-2-yl)phenyl](phenyl)methyl]-1-[(2R) or (2S)-2-hydroxy-2-(1H-1,2,3-triazol-5-yl)acetyl]pyrrolidine-2-carboxamide] were 124 nM, 1200 nM and > 100000 nM.
Taken in the same sequence, the figures for `CC(C)c1ccc([C@@H](NC(=O)[C@@H]2C[C@@H](F)CN2C(=O)C(O)c2cnn[nH]2)c2ccccc2)cc1F` (single isomer, unassigned) [Compound 774, (2S,4R)-4-fluoro-N-[(S)-[3-fluoro-4-(propan-2-yl)phenyl](phenyl)methyl]-1-[(2S) or (2R)-2-hydroxy-2-(1H-1,2,3-triazol-5-yl)acetyl]pyrrolidine-2-carboxamide] were 22 nM, 190 nM and > 100000 nM.
In the case of `CC(C(=O)N1C[C@H](F)C[C@H]1C(=O)N[C@@H](c1ccccc1)c1ccc(C2CC2)c(F)c1)n1cnc2ccccc21` (single isomer, unassigned) [Compound 809, (2S,4R)-1-[(2S) or (2R)-2-(1H-1,3-benzodiazol-1-yl)propanoyl]-N-[(S)-(4-cyclopropyl-3-fluorophenyl)(phenyl)methyl]-4-fluoropyrrolidine-2-carboxamide], the IC50 in test [1] is 7 nM; in test [2], 190 nM; in test [3] it was > 100000 nM.
Regarding `CC(C(=O)N1C[C@H](F)C[C@H]1C(=O)N[C@@H](c1ccccc1)c1ccc(C2CC2)c(F)c1)n1cnc2ccccc21` (single isomer, unassigned) [Compound 810, (2S,4R)-1-[(2R) or (2S)-2-(1H-1,3-benzodiazol-1-yl)propanoyl]-N-[(S)-(4-cyclopropyl-3-fluorophenyl)(phenyl)methyl]-4-fluoropyrrolidine-2-carboxamide], the IC50 in test [1] is 357 nM; in test [2], 5280 nM; in test [3], > 100000 nM.
As to `CC(C)c1ccc([C@@H](NC(=O)[C@@H]2C[C@@H](F)CN2C(=O)Cc2nncn2C)c2ccccc2)cc1` (stereo in doubt) [Compound 227, (2RS,4R)-4-fluoro-1-[2-(4-methyl-4H-1,2,4-triazol-3-yl)acetyl]-N-[(S)-phenyl[4-(propan-2-yl)phenyl]methyl]pyrrolidine-2-carboxamide], the IC50 in test [1] was 76 nM; in test [2] (Homo sapiens, HeLa, 24 h), 1310 nM; in test [3], > 100000 nM.
With `CC(C)c1ccc([C@@H](NC(=O)[C@@H]2C[C@@H](F)CN2C(=O)Cc2cnn[nH]2)c2ccccc2)cc1` [Compound 1, (2S,4R)-1-(2-(1H-1,2,3-triazol-5-yl)acetyl)-4-fluoro-N-((S)-(4-isopropylphenyl)(phenyl)methyl) pyrrolidine-2-carboxamide], the IC50 in test [1] is 33 nM; in test [2] (Homo sapiens, HeLa, 24 h), 420 nM; in test [3], > 100000 nM.
As for `CC(=O)N(CCC(=O)N1C[C@H](F)C[C@H]1C(=O)N[C@@H](c1ccccc1)c1ccc(C(C)C)cc1)c1ccn(C)n1` [Compound 2, (2S,4R)-4-fluoro-1-{3-[N-(1-methyl-1H-pyrazol-3-yl)acetamido)propanoyl}-N-[(S)-phenyl[4-(propan-2-yl)phenyl]methyl]pyrrolidine-2-carboxamide], the IC50 in test [1] was 59 nM; in test [2] (Homo sapiens, HeLa, 24 h) it was 1090 nM; in test [3], > 100000 nM.
For the compound `CC(C)c1ccc([C@@H](NC(=O)[C@@H]2C[C@@H](F)CN2C(=O)Cn2nccn2)c2ccccc2)cc1` [Compound 17, (2S,4R)-4-fluoro-N-[(S)-phenyl[4-(propan-2-yl)phenyl]methyl]-1-[2-(2H-1,2,3-triazol-2-yl)acetyl]pyrrolidine-2-carboxamide], the IC50 was 34 nM in test [1]; 330 nM in test [2] (Homo sapiens, HeLa, 24 h); > 100000 nM in test [3].
Taken in the same sequence, the figures for `CC(C)c1ccc([C@@H](NC(=O)[C@@H]2C[C@@H](F)CN2C(=O)COc2cccnn2)c2ccccc2)cc1` [Compound 21, (2S,4R)-4-fluoro-N-[(S)-phenyl[4-(propan-2-yl)phenyl]methyl]-1-[2-(pyridazin-3-yloxy)acetyl]pyrrolidine-2-carboxamide] were 27 nM, 470 nM and > 100000 nM.
In the case of `CC(C)c1ccc([C@@H](NC(=O)[C@@H]2C[C@@H](F)CN2C(=O)Cc2ccn(C)n2)c2ccccc2)cc1` [Compound 49, (2S,4R)-4-fluoro-1-[2-(1-methyl-1H-pyrazol-3-yl)acetyl]-N-[(S)-phenyl[4-(propan-2-yl)phenyl]methyl]pyrrolidine-2-carboxamide], the IC50 is 39 nM in test [1]; 360 nM in test [2] (Homo sapiens, HeLa, 24 h); > 100000 nM in test [3].
`CC(C)c1ccc([C@@H](NC(=O)[C@@H]2C[C@@H](F)CN2C(=O)Cn2cnc3ccccc32)c2ccccc2)cc1` [Compound 77, (2S,4R)-1-[2-(1H-1,3-benzodiazol-1-yl)acetyl]-4-fluoro-N-[(S)-phenyl[4-(propan-2-yl)phenyl]methyl]pyrrolidine-2-carboxamide]: the IC50 in test [1] is 8 nM; in test [2] (Homo sapiens, HeLa, 24 h), 120 nM; in test [3], > 100000 nM.

For the origin of these results see US11814367B2, “Inhibitors of glycogen synthase 1 (GYS1) and methods of use thereof” (Maze Therapeutics, Inc., priority 2021, dated 2023).
